Article PMC4492579, “Potent and Selective Triazole-Based Inhibitors of the Hypoxia-Inducible Factor Prolyl-Hydroxylases with Activity in the Murine Brain” (PLoS ONE, 2015)
Where a name gives a salt, the structure may show the parent alone. Read-outs that look alike come from different tables or passages of the source.

Legend:
[1] = tested on: MCF-7, Hep3B and U2OS cells; assay: Immunoblotting of HIF1α induction in MCF-7, Hep3B and U2OS cells; format: cell-based, human; conditions: immunoblot
Experimental: Human cell lines (RCC4, HeLa, Hep3B, MCF-7 and U2OS) were cultured in DMEM (D6546-500ML; Sigma Aldrich) each supplemented with 10% fetal bovine serum (F7524-500ML; Sigma Aldrich), 2 mM L-glutamine (G7513- 100ML; Sigma Aldrich), 50 units/ml of penicillin, and 50 μg/ml of streptomycin (P0781-100ML; Sigma Aldrich). The RCC4 cell line was a gift from C.H.C.M. Buys (University of Groningen, [2]), the HeLa and Hep3B cell lines were from the European Collection of Cell Cultures (ECACC), the MCF-7 cell line was from the American Type Culture Collection (ATCC) and the U2OS cell line was a gift from S.Galey (ICRF Clare Hall Laboratories, United Kingdom). Cells were treated either with DMSO (control) or compounds (dissolved in DMSO) and added directly into the cell culture medium to the desired final concentration for 4–5 h as previously described.
Cells were extracted using urea/SDS buffer (6.7 M urea, 10 mM Tris-HCl pH 6.8, 10% glycerol and 1% SDS) and processed for immunoblotting as described. […]

MCF-7 = assay: Quantitative HIF1α MSD immunoassay, MCF-7; format: cell-based; conditions: Homo sapiens, read-out: HIF1α EC50
Experimental: Cells were seeded into 96-well cell culture plates (150 μl culture volume) at approximately 60–70% confluency at least 12 h prior to the compound treatment. Half of the culture medium (75 μl/well) were removed and 75 μl/well of medium containing the desired concentrations of compounds were added into cells for 5 h. The cell medium was then removed and the cells were washed once with phosphate buffered saline (PBS), followed by the addition of lysis buffer (20 mM Tris pH 7.4, 450 mM NaCl, 1 mM EDTA, 1 mM EGTA, 0.5% Triton X-100, 1x complete protease inhibitor cocktail and 100 μM DFO). Plates were then left at 4°C with shaking. […] Plates were washed thrice with Tris Wash Buffer, added with 150 μl/well 2X Read Buffer (R92TC, Meso Scale Discovery) before being read with an MSD Sector S600 plate reader (Meso Scale Discovery). Signals generated were normalized to “lysis buffer-only” controls.
To quantify the cellular efficiency of PHD inhibition, we developed an electrochemiluminescence-based assay for the quantification of HIF1α levels using the Meso Scale Discovery (MSD, http://www.mesoscale.com) technology (HIF1α MSD assay), which is based on the capture and detection of HIF1α protein using two specific HIF1α antibodies. […]

FBXL11 (KDM2A) = molecular target: T1, FBXL11 (KDM2A) (Homo sapiens, UniProt Q9Y2K7); assay: KDM AlphaScreen assay, FBXL11
T1 sequence (Q9Y2K7 1-1162): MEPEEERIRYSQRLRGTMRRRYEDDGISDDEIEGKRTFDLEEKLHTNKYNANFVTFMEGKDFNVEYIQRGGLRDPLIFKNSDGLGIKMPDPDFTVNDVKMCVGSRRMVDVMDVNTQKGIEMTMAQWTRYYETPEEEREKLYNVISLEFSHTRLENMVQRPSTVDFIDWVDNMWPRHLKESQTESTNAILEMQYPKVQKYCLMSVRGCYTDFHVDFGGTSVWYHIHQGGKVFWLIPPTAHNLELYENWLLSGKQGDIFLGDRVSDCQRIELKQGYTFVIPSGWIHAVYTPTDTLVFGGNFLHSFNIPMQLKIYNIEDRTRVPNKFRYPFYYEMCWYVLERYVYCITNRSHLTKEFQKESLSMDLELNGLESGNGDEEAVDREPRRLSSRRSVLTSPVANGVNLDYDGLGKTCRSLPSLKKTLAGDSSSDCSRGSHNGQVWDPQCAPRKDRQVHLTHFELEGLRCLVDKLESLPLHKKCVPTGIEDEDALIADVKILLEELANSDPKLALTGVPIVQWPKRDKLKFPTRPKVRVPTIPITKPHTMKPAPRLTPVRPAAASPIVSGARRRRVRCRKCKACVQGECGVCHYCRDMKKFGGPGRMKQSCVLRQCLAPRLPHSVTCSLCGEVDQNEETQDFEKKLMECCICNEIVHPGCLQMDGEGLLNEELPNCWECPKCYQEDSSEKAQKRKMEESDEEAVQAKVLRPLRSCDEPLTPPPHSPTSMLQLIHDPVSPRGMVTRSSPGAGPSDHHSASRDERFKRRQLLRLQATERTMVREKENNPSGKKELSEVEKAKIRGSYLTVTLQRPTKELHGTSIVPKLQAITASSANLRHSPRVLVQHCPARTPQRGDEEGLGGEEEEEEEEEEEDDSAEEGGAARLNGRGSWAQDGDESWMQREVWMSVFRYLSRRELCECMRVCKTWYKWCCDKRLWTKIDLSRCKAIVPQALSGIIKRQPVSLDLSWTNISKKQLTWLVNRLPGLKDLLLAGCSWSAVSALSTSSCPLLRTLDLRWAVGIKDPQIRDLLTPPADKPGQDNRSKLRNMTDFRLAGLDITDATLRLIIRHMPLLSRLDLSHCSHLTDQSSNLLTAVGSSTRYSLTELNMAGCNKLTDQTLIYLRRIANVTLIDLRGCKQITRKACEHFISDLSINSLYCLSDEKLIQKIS
Experimental: Inhibition assays for PHD2 (AlphaScreen) [9], the KDMs (AlphaScreen) [17], BBOX [18] and FTO [19] were carried out as previously described. […] IC50 values were calculated using nonlinear regression with normalized dose-response fit using GraphPad Prism 5.

| SMILES | HIF1α induction [1] | EC50 (MCF-7; MCF7, 5 h) [µM] | IC50 (FBXL11 (KDM2A)) [µM] | EC50 (MCF-7; MCF7, MCF-7, 5 h treatment, MSD assay) [µM] |
| --- | --- | --- | --- | --- |
| CC(C)(C)OC(=O)c1ccc(-n2[nH]cc(-n3ccnn3)c2=O)nc1 [IOX4, t-Butyl 6-(5-oxo-4-(1H-1,2,3-triazol-1-yl)-2,5-dihydro-1H-pyrazol-1-yl)nicotinate] | Induction of HIF1α levels were observed | 11.7 | 20 |  |
| O=C(O)CNC(=O)c1c(O)c2ccccc2n(Cc2ccccc2)c1=O [IOX2] | Induction of HIF1α levels were observed |  |  | 114 |
| O=C(O)c1ccc(-n2[nH]cc(-n3ccnn3)c2=O)nc1 [compound 1, 6-(5-oxo-4-(1H-1,2,3-triazol-1-yl)-2,5-dihydro-1H-pyrazol-1-yl)pyridine-3-carbocylic acid hydrochloride] |  |  | 20 |  |
